biological target: T1, Sirt6 (Homo sapiens, UniProt Q8N6T7); assay: Measurement of Sirt6 Activity (CycLex Sirt6 Deacetylase Fluorometric Assay Kit); assay type: biochemical; conditions: compound at 10 μM; fluorescence relative to the group without compound treatment (positive control group)
T1 construct: purchased CycLex CY-1156V2
Method in brief: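 Recombinant Sirt6 with fluoro-labelled acetyl-lysine peptide, NAD and lysylendopeptidase developer, compound added from 10× stock in PBS; 1 h at room temperature. Fluorescence read at ex 490/em 530 nm; activation expressed as fluorescence ratio relative to enzyme without compound.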

T1 sequence (Q8N6T7 whole entry): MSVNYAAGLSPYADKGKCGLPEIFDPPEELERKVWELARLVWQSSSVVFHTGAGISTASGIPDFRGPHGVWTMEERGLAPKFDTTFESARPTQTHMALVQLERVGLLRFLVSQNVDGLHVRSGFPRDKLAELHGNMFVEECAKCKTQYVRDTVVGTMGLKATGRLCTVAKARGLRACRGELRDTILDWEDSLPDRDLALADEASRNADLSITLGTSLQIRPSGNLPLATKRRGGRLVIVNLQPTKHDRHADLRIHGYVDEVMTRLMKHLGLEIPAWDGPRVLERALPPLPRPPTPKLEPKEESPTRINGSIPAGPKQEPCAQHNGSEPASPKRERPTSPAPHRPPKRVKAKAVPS

Row | Structure (SMILES) | Sirt6 Activity (% activity, 10 μM)
1 | CCNS(=O)(=O)c1cccc(-c2nn(-c3ccc(F)cc3F)c(=O)c3ccc(F)cc23)c1 [Example 124, 3-(3-(2,4-Difluorophenyl)-7-fluoro-4-oxo-3,4-dihydrophthalazin-1-yl)-N-ethylbenzenesulfonamide] | 146 % activity
2 | CN(C)S(=O)(=O)c1cccc(-c2nn(-c3ccc(F)cc3F)c(=O)c3ccc(F)cc23)c1 [Example 125, 3-(3-(2,4-Difluorophenyl)-7-fluoro-4-oxo-3,4-dihydrophthalazin-1-yl)-N,N-dimethylbenzenesulfonamide] | 172 % activity
3 | NS(=O)(=O)c1cccc(-c2nn(-c3ccc(F)cc3F)c(=O)c3ccccc23)c1 [Example 126, 3-(3-(2,4-Difluorophenyl)-4-oxo-3,4-dihydrophthalazin-1-yl)benzenesulfonamide] | 185 % activity
4 | O=c1c2ccccc2c(-c2cccc(S(=O)(=O)NCCO)c2)nn1-c1ccc(F)cc1F [Example 127, 3-(3-(2,4-Difluorophenyl)-4-oxo-3,4-dihydrophthalazin-1-yl)-N-(2-hydroxyethyl)benzene Sulfonamide] | 321 % activity
5 | CCS(=O)(=O)Nc1cccc(-c2nn(C3CCCCC3)c(=O)c3ccccc23)c1 [Example 128, N-(3-(3-Cyclohexyl-4-oxo-3,4-dihydrophthalazin-1-yl)phenyl)ethanesulfonamide] | 177.53 % activity
6 | CCS(=O)(=O)Nc1cccc(-c2nn(C3CCN(C)CC3)c(=O)c3ccccc23)c1 [Example 129, N-(3-(3-(1-Methylpiperidin-4-yl)-4-oxo-3,4-dihydrophthalazin-1-yl)phenyl)ethane Sulfonamide] | 104.16 % activity
7 | N#Cc1cccc(-c2nn(-c3ccc(F)cc3)c(=O)c3ccccc23)c1 [Example 130, 3-(3-(4-Fluorophenyl)-4-oxo-3,4-dihydrophthalazin-1-yl)benzonitrile] | 120.16 % activity
8 | N/C(=N/O)c1cccc(-c2nn(-c3ccc(F)cc3)c(=O)c3ccccc23)c1 [Example 131, (E)-3-(3-(4-Fluorophenyl)-4-oxo-3,4-dihydrophthalazin-1-yl)-N′-hydroxybenzimidamide] | 102.08 % activity
9 | CCS(=O)(=O)Nc1cccc(-c2nn(C(C)C)c(=O)c3ccccc23)c1 [Example 132, N-(3-(3-Isopropyl-4-oxo-3,4-dihydrophthalazin-1-yl)phenyl)ethanesulfonamide] | 107.58 % activity
10 | CCS(=O)(=O)Nc1cccc(-c2nn(-c3cnn(C)c3)c(=O)c3ccccc23)c1 [Example 133, N-(3-(3-(1-Methyl-1H-pyrazol-4-yl)-4-oxo-3,4-dihydrophthalazin-1-yl)phenyl)ethanesulfonamide] | 118.8 % activity
11 | Cl.NC1CCCN(c2nn(-c3ccc(F)cc3)c(=O)c3ccccc23)C1 (centres unmarked) [Example 134, 4-(3-Aminopiperidin-1-yl)-2-(4-fluorophenyl)phthalazin-1(2H)-one-hydrochloride] | 167.53 % activity
12 | CCS(=O)(=O)NC1CCCN(c2nn(-c3ccc(F)cc3)c(=O)c3ccccc23)C1 (centres unmarked) [Example 135, N-(1-(3-(4-Fluorophenyl)-4-oxo-3,4-dihydrophthalazin-1-yl)piperidin-3-yl)ethanesulfonamide] | 174.93 % activity
13 | CCS(=O)(=O)Nc1cccc(-c2nn(C3COC3)c(=O)c3ccccc23)c1 [Example 136, N-(3-(3-(Oxetan-3-yl)-4-oxo-3,4-dihydrophthalazin-1-yl)phenyl)ethanesulfonamide] | 101.27 % activity
14 | CCS(=O)(=O)NC1CCN(c2nn(-c3ccc(F)cc3)c(=O)c3ccccc23)C1 (centres unmarked) [Example 137, N-(1-(3-(4-Fluorophenyl)-4-oxo-3,4-dihydrophthalazin-1-yl)pyrrolidin-3-yl)ethanesulfonamide] | 112.58 % activity
15 | CCS(=O)(=O)N[C@H]1CCCN(c2nn(-c3ccc(F)cc3)c(=O)c3ccccc23)C1 [Example 138, (S)—N-(1-(3-(4-Fluorophenyl)-4-oxo-3,4-dihydrophthalazin-1-yl)piperidin-3-yl)ethanesulfonamide] | 175.98 % activity
16 | CCS(=O)(=O)N[C@@H]1CCCN(c2nn(-c3ccc(F)cc3)c(=O)c3ccccc23)C1 [Example 139, (R)—N-(1-(3-(4-Fluorophenyl)-4-oxo-3,4-dihydrophthalazin-1-yl)piperidin-3-yl)ethanesulfonamide] | 130.07 % activity
17 | CCS(=O)(=O)Nc1cccc(-c2nn(C3CCC(F)(F)CC3)c(=O)c3ccccc23)c1 [Example 140, N-(3-(3-(4,4-Difluorocyclohexyl)-4-oxo-3,4-dihydrophthalazin-1-yl)phenyl)ethanesulfonamide] | 134.41 % activity
18 | CCS(=O)(=O)NC1CCCCN(c2nn(-c3ccc(F)cc3)c(=O)c3ccccc23)C1 (centres unmarked) [Example 141, N-(1-(3-(4-Fluorophenyl)-4-oxo-3,4-dihydrophthalazin-1-yl)azepan-3-yl)ethanesulfonamide] | 212.55 % activity
19 | NS(=O)(=O)c1cccc(-c2nn(C3CCCCC3)c(=O)c3ccccc23)c1 [Example 142, 3-(3-Cyclohexyl-4-oxo-3,4-dihydrophthalazin-1-yl)benzenesulfonamide] | 162.3 % activity
20 | Cl.NC1CCCCN(c2nn(C3CCCCC3)c(=O)c3ccccc23)C1 (centres unmarked) [Example 143, 4-(3-Aminoazepan-1-yl)-2-cyclohexyl phthalazin-1(2H)-one-hydrochloride] | 238.3 % activity
21 | CCS(=O)(=O)NC1CCCCN(c2nn(C3CCCCC3)c(=O)c3ccccc23)C1 (centres unmarked) [Example 144, N-(1-(3-Cyclohexyl-4-oxo-3,4-dihydrophthalazin-1-yl)azepan-3-yl)ethanesulfonamide] | 164.1 % activity
22 | CCS(=O)(=O)Nc1cccc(-c2nn(C3CCC(C)CC3)c(=O)c3ccccc23)c1 (centres unmarked) [Example 145, N-(3-(3-(4-Methylcyclohexyl)-4-oxo-3,4-dihydrophthalazin-1-yl)phenyl)ethanesulfonamide] | 136.6 % activity
23 | Cl.N[C@H]1CCCN(c2nn(C3CCCCC3)c(=O)c3ccccc23)C1 [Example 146, (S)-4-(3-Aminopiperidin-1-yl)-2-cyclohexylphthalazin-1(2H)-one-hydrochloride] | 135.2 % activity
24 | CCS(=O)(=O)N[C@H]1CCCN(c2nn(C3CCCCC3)c(=O)c3ccccc23)C1 [Example 147, (S)—N-(1-(3-Cyclohexyl-4-oxo-3,4-dihydrophthalazin-1-yl)piperidin-3-yl)ethanesulfonamide] | 127.7 % activity
25 | Cl.NC1CCCCN(c2nn(-c3ccc(F)cc3)c(=O)c3ccccc23)C1 (centres unmarked) [Example 148, 4-(3-Aminoazepan-1-yl)-2-(4-fluorophenyl)phthalazin-1(2H)-one-hydrochloride] | 184.3 % activity
26 | CCS(=O)(=O)Nc1cccc(-c2cn(-c3ccc(F)cc3)c(=O)c3ccncc23)c1 [Example 149, N-(3-(2-(4-Fluorophenyl)-1-oxo-1,2-dihydropyrido[3,4-d]pyridin-4-yl)phenyl)ethanesulfonamide] | 114.9 % activity

From patent publication US20220235011A1, “PHTHALAZINONE COMPOUNDS AND USE THEREOF” (ST PHARM CO., LTD., priority 2019, published 2022)
